From publication PMC11992225, “Antibacterial compounds against non-growing and intracellular bacteria” (npj Antimicrobials and Resistance, 2025)
In brackets after ≈: the same amount, converted by molar mass. Like-named read-outs stand apart in the source and are kept apart here.

How the values were obtained:
[1] = test system: S. aureus DSM2569; assay: MIC, standard microdilution assay, growing S. aureus; assay type: cell-based, Staphylococcus aureus; details: S. aureus; CA-MHB pH 7.4; read-out: MIC (μM) CA-MHB
How it was run: (§1)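 MICs come from microdilution in CA-MHB/40 mM HEPES pH 7.4 for the UPEC, Pseudomonas and Staphylococcus strains, and in TSB for Shigella. UPEC also tested in LPM/30 mM MES pH 5.5.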

[2] = test system: E. coli CFT073 (UPEC); assay: MIC, standard microdilution assay, growing UPEC; assay type: cell-based, Escherichia coli; details: E. coli
How it was run: as §1

[3] = test system: intracellular S. flexneri 5a M90T in TC7 cells; assay: microbe, parasite or virus in culture; assay type: cell-based, Shigella flexneri
[4] = test system: non-growing UPEC CFT073; assay: Dose-dependent killing analysis (CFU spot-plating) of stationary-phase UPEC; assay type: cell-based, Escherichia coli;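 as to average Δlog10(CFU/ml) (killing): drug concentration in µM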
How it was run: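 Killing assessed by CFU counts: overnight 37 °C LB agar spot plates (10 μl drops of 10-fold PBS dilutions) scored at the lowest dilution with distinct colonies. Samples were compound-treated non-growing UPEC CFT073, 200 μl per well. Performed as three biological replicates.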

[5] = E. coli in 1:4 CA-MHB (pH 7.4), drug conc. 0.25
[6] = E. coli in 1:4 CA-MHB (pH 7.4), drug conc. 0.5
[7] = E. coli in 1:4 CA-MHB (pH 7.4), drug conc. 1
[8] = E. coli in 1:4 CA-MHB (pH 7.4), drug conc. 2.5
[9] = E. coli in 1:4 CA-MHB (pH 7.4), drug conc. 5
[10] = E. coli in 1:4 CA-MHB (pH 7.4), drug conc. 10
[11] = E. coli in LPM (pH 5.5), drug conc. 0.25
[12] = E. coli in LPM (pH 5.5), drug conc. 0.5
[13] = E. coli in LPM (pH 5.5), drug conc. 1
[14] = E. coli in LPM (pH 5.5), drug conc. 2.5
[15] = E. coli in LPM (pH 5.5), drug conc. 5
[16] = E. coli in LPM (pH 5.5), drug conc. 10

SMILES: N#Cc1c(N2C[C@@H]3NCCO[C@H]3C2)c(F)cc2c(=O)c(C(=O)O)cn(C3CC3)c12 [Finafloxacin]
- MIC [1]: 0.5 µM (≈ 0.199 µg/mL)
- MIC ([2]; LPM pH 5.5, read-out: MIC): 0.007812 µM (≈ 0.00311 µg/mL)
- MIC ([2]; pH 7.4, CA-MHB, read-out: MIC (μM) CA-MHB): 0.25 µM (≈ 0.0996 µg/mL)
- Fluorescence intensity (RFU), Mean, 2 x MIC ([3]; TC7 cells infected with GFP-expressing S. flexneri, 14 h treatment, 2 x MIC): 5014.06 RFU
- Fluorescence intensity (RFU), Mean, 4 x MIC ([3]; TC7 cells infected with GFP-expressing S. flexneri, 14 h treatment, 4 x MIC): 3886.5 RFU
- Fluorescence intensity (RFU), Mean, 8 x MIC ([3]; TC7 cells infected with GFP-expressing S. flexneri, 14 h treatment, 8 x MIC): 3157.03 RFU
- Fluorescence intensity (RFU), Mean, 16 x MIC ([3]; TC7 cells infected with GFP-expressing S. flexneri, 14 h treatment, 16 x MIC): 2833.69 RFU
- Fluorescence intensity (RFU), Mean, 32 x MIC ([3]; TC7 cells infected with GFP-expressing S. flexneri, 14 h treatment, 32 x MIC): 2227.19 RFU
- Fluorescence intensity (RFU), Mean, MIC ([3]; TC7 cells infected with GFP-expressing S. flexneri, 14 h treatment, MIC): 6107.08 RFU
- IC50 ([3]; intracellular S. flexneri in TC7 cells, GFP fluorescence after 14 h treatment, read-out: IC50): 0.202 µM
- bactericidal effect against stationary-phase UPEC cultures ([4]; 20 µM, preliminary experiments): bactericidal effects
- log10(CFU/ml) after treatment, replicate 1 [4, 5]: 9.322 log10(CFU/ml)
- log10(CFU/ml) after treatment, replicate 2 [4, 5]: 8.602 log10(CFU/ml)
- log10(CFU/ml) after treatment, replicate 3 [4, 5]: 8.301 log10(CFU/ml)
- average Δlog10(CFU/ml) (killing) ([4]; E. coli in 1:4 CA-MHB (pH 7.4), drug conc. 0.25, vs 8.977 before treatment): 0.236 log10(CFU/ml)
- log10(CFU/ml) after treatment, replicate 1 [4, 6]: 9.255 log10(CFU/ml)
- log10(CFU/ml) after treatment, replicate 2 [4, 6]: 8.903 log10(CFU/ml)
- log10(CFU/ml) after treatment, replicate 3 [4, 6]: 8.845 log10(CFU/ml)
- average Δlog10(CFU/ml) (killing) ([4]; E. coli in 1:4 CA-MHB (pH 7.4), drug conc. 0.5, vs 8.977 before treatment): -0.024 log10(CFU/ml)
- log10(CFU/ml) after treatment, replicate 1 [4, 7]: 9.322 log10(CFU/ml)
- log10(CFU/ml) after treatment, replicate 2 [4, 7]: 8.845 log10(CFU/ml)
- log10(CFU/ml) after treatment, replicate 3 [4, 7]: 8.699 log10(CFU/ml)
- average Δlog10(CFU/ml) (killing) ([4]; E. coli in 1:4 CA-MHB (pH 7.4), drug conc. 1, vs 8.977 before treatment): 0.022 log10(CFU/ml)
- log10(CFU/ml) after treatment, replicate 1 [4, 8]: 9.176 log10(CFU/ml)
- log10(CFU/ml) after treatment, replicate 2 [4, 8]: 9.041 log10(CFU/ml)
- log10(CFU/ml) after treatment, replicate 3 [4, 8]: 8.230 log10(CFU/ml)
- average Δlog10(CFU/ml) (killing) ([4]; E. coli in 1:4 CA-MHB (pH 7.4), drug conc. 2.5, vs 8.977 before treatment): 0.161 log10(CFU/ml)
- log10(CFU/ml) after treatment, replicate 1 [4, 9]: 8.362 log10(CFU/ml)
- log10(CFU/ml) after treatment, replicate 2 [4, 9]: 8.230 log10(CFU/ml)
- log10(CFU/ml) after treatment, replicate 3 [4, 9]: 8.000 log10(CFU/ml)
- average Δlog10(CFU/ml) (killing) ([4]; E. coli in 1:4 CA-MHB (pH 7.4), drug conc. 5, vs 8.977 before treatment): 0.780 log10(CFU/ml)
- log10(CFU/ml) after treatment, replicate 1 [4, 10]: 7.491 log10(CFU/ml)
- log10(CFU/ml) after treatment, replicate 2 [4, 10]: 7.954 log10(CFU/ml)
- log10(CFU/ml) after treatment, replicate 3 [4, 10]: 8.079 log10(CFU/ml)
- average Δlog10(CFU/ml) (killing) ([4]; E. coli in 1:4 CA-MHB (pH 7.4), drug conc. 10, vs 8.977 before treatment): 1.136 log10(CFU/ml)
- log10(CFU/ml) after treatment, replicate 1 [4, 11]: 7.114 log10(CFU/ml)
- log10(CFU/ml) after treatment, replicate 2 [4, 11]: 6.230 log10(CFU/ml)
- log10(CFU/ml) after treatment, replicate 3 [4, 11]: 8.000 log10(CFU/ml)
- average Δlog10(CFU/ml) (killing) ([4]; E. coli in LPM (pH 5.5), drug conc. 0.25, vs 7.350 before treatment): 0.236 log10(CFU/ml)
- log10(CFU/ml) after treatment, replicate 1 [4, 12]: 7.114 log10(CFU/ml)
- log10(CFU/ml) after treatment, replicate 2 [4, 12]: 6.447 log10(CFU/ml)
- log10(CFU/ml) after treatment, replicate 3 [4, 12]: 7.699 log10(CFU/ml)
- average Δlog10(CFU/ml) (killing) ([4]; E. coli in LPM (pH 5.5), drug conc. 0.5, vs 7.350 before treatment): 0.264 log10(CFU/ml)
- log10(CFU/ml) after treatment, replicate 1 [4, 13]: 6.845 log10(CFU/ml)
- log10(CFU/ml) after treatment, replicate 2 [4, 13]: 6.342 log10(CFU/ml)
- log10(CFU/ml) after treatment, replicate 3 [4, 13]: 7.204 log10(CFU/ml)
- average Δlog10(CFU/ml) (killing) ([4]; E. coli in LPM (pH 5.5), drug conc. 1, vs 7.350 before treatment): 0.553 log10(CFU/ml)
- log10(CFU/ml) after treatment, replicate 1 [4, 14]: 6.301 log10(CFU/ml)
- log10(CFU/ml) after treatment, replicate 2 [4, 14]: 6.699 log10(CFU/ml)
- log10(CFU/ml) after treatment, replicate 3 [4, 14]: 6.580 log10(CFU/ml)
- average Δlog10(CFU/ml) (killing) ([4]; E. coli in LPM (pH 5.5), drug conc. 2.5, vs 7.350 before treatment): 0.824 log10(CFU/ml)
- log10(CFU/ml) after treatment, replicate 1 [4, 15]: 6.000 log10(CFU/ml)
- log10(CFU/ml) after treatment, replicate 2 [4, 15]: 6.301 log10(CFU/ml)
- log10(CFU/ml) after treatment, replicate 3 [4, 15]: 5.903 log10(CFU/ml)
- average Δlog10(CFU/ml) (killing) ([4]; E. coli in LPM (pH 5.5), drug conc. 5, vs 7.350 before treatment): 1.282 log10(CFU/ml)
- log10(CFU/ml) after treatment, replicate 1 [4, 16]: 6.146 log10(CFU/ml)
- log10(CFU/ml) after treatment, replicate 2 [4, 16]: 6.114 log10(CFU/ml)
- log10(CFU/ml) after treatment, replicate 3 [4, 16]: 5.544 log10(CFU/ml)
- average Δlog10(CFU/ml) (killing) ([4]; E. coli in LPM (pH 5.5), drug conc. 10, vs 7.350 before treatment): 1.416 log10(CFU/ml)
